ChEMBL document CHEMBL4308841, “Synthesis, in vitro antiproliferative activity, and kinase inhibitory effects of pyrazole-containing diarylureas and diarylamides” (Eur J Med Chem, 2018)

How the values were obtained:
[1] = test system: SK-MEL-2; experiment: Growth inhibition of human SK-MEL-2 cells assessed as cell growth at 0.01 uM incubated for 48 hrs by sulforhodamine B assay relative to control; type: functional; conditions: SK-MEL-2, 48 h, read-out: Activity
[2] = test system: DU-145; experiment: Growth inhibition of human DU145 cells assessed as cell growth at 1 uM incubated for 48 hrs by sulforhodamine B assay relative to control; type: functional; conditions: DU-145, 48 h, read-out: Activity
[3] = test system: NCI-H23; experiment: Growth inhibition of human NCI-H23 cells assessed as cell growth at 0.1 uM incubated for 48 hrs by sulforhodamine B assay relative to control; type: functional; conditions: NCI-H23, 48 h, read-out: Activity
[4] = test system: BT-549; experiment: Growth inhibition of human BT549 cells assessed as cell growth at 0.1 uM incubated for 48 hrs by sulforhodamine B assay relative to control; type: functional; conditions: BT-549, 48 h, read-out: Activity
[5] = test system: UO-31; experiment: Growth inhibition of human UO31 cells incubated for 48 hrs by sulforhodamine B assay; type: functional, cell-based; conditions: UO-31, 48 h
[6] = test system: 786-0; experiment: Growth inhibition of human 786-0 cells assessed as cell growth at 1 uM incubated for 48 hrs by sulforhodamine B assay relative to control; type: functional; conditions: 786-0, 48 h, read-out: Activity
[7] = test system: SNB-75; experiment: Growth inhibition of human SNB75 cells incubated for 48 hrs by sulforhodamine B assay; type: functional, cell-based; conditions: SNB-75, 48 h
[8] = test system: 786-0; experiment: Growth inhibition of human 786-0 cells incubated for 48 hrs by sulforhodamine B assay; type: functional, cell-based; conditions: 786-0, 48 h
[9] = test system: Hs-578T; experiment: Growth inhibition of human Hs578T cells assessed as cell growth at 100 uM incubated for 48 hrs by sulforhodamine B assay relative to control; type: functional; conditions: read-out: Activity
[10] = test system: HCT-15; experiment: Growth inhibition of human HCT15 cells assessed as cell growth at 0.01 uM incubated for 48 hrs by sulforhodamine B assay relative to control; type: functional; conditions: HCT-15, 48 h, read-out: Activity
[11] = test system: COLO 205; experiment: Growth inhibition of human COLO205 cells assessed as cell growth at 0.01 uM incubated for 48 hrs by sulforhodamine B assay relative to control; type: functional; conditions: COLO 205, 48 h, read-out: Activity
[12] = test system: U-251; experiment: Growth inhibition of human U251 cells incubated for 48 hrs by sulforhodamine B assay; type: functional, cell-based; conditions: U-251, 48 h
[13] = test system: A498; experiment: Growth inhibition of human A498 cells incubated for 48 hrs by sulforhodamine B assay; type: functional, cell-based; conditions: A498, 48 h
[14] = test system: RPMI-8226; experiment: Growth inhibition of human RPMI8226 cells assessed as cell growth at 100 uM incubated for 48 hrs by sulforhodamine B assay relative to control; type: functional; conditions: RPMI-8226, 48 h, read-out: Activity
[15] = test system: ACHN; experiment: Growth inhibition of human ACHN cells assessed as cell growth at 0.1 uM incubated for 48 hrs by sulforhodamine B assay relative to control; type: functional; conditions: read-out: Activity
[16] = test system: NCI-H522; experiment: Growth inhibition of human NCI-H522 cells assessed as cell growth at 100 uM incubated for 48 hrs by sulforhodamine B assay relative to control; type: functional; conditions: NCI-H522, 48 h, read-out: Activity
[17] = test system: RXF 393; experiment: Growth inhibition of human RXF393 cells assessed as cell growth at 0.1 uM incubated for 48 hrs by sulforhodamine B assay relative to control; type: functional; conditions: RXF 393, 48 h, read-out: Activity
[18] = test system: RXF 393; experiment: Growth inhibition of human RXF393 cells incubated for 48 hrs by sulforhodamine B assay; type: functional, cell-based; conditions: RXF 393, 48 h
[19] = test system: NCI-H460; experiment: Growth inhibition of human NCI-H460 cells incubated for 48 hrs by sulforhodamine B assay; type: functional, cell-based; conditions: NCI-H460, 48 h
[20] = test system: SF-539; experiment: Growth inhibition of human SF539 cells assessed as cell growth at 0.1 uM incubated for 48 hrs by sulforhodamine B assay relative to control; type: functional; conditions: SF-539, 48 h, read-out: Activity
[21] = test system: A549; experiment: Growth inhibition of human A549/ATCC cells incubated for 48 hrs by sulforhodamine B assay; type: functional, cell-based; conditions: A549, 48 h
[22] = test system: SK-OV-3; experiment: Growth inhibition of human SKOV3 cells assessed as cell growth at 1 uM incubated for 48 hrs by sulforhodamine B assay relative to control; type: functional; conditions: SK-OV-3, 48 h, read-out: Activity
[23] = test system: RXF 393; experiment: Growth inhibition of human RXF393 cells assessed as cell growth at 0.01 uM incubated for 48 hrs by sulforhodamine B assay relative to control; type: functional; conditions: RXF 393, 48 h, read-out: Activity
[24] = test system: SK-OV-3; experiment: Growth inhibition of human SKOV3 cells assessed as cell growth at 0.01 uM incubated for 48 hrs by sulforhodamine B assay relative to control; type: functional; conditions: SK-OV-3, 48 h, read-out: Activity
[25] = test system: SW-620; experiment: Growth inhibition of human SW620 cells assessed as cell growth at 100 uM incubated for 48 hrs by sulforhodamine B assay relative to control; type: functional; conditions: SW-620, 48 h, read-out: Activity
[26] = test system: Hs-578T; experiment: Growth inhibition of human Hs578T cells assessed as cell growth at 0.01 uM incubated for 48 hrs by sulforhodamine B assay relative to control; type: functional; conditions: read-out: Activity
[27] = test system: NCI-H522; experiment: Growth inhibition of human NCI-H522 cells assessed as cell growth at 0.01 uM incubated for 48 hrs by sulforhodamine B assay relative to control; type: functional; conditions: NCI-H522, 48 h, read-out: Activity
[28] = read-out: LC50 (the source's name)
[29] = read-out: pLC50 (the source's name) (converted)

SMILES: O=C(Nc1cccc(-n2cc(-c3ccncc3)c(-c3cc(O)cc(Cl)c3)n2)c1)c1cc(C(F)(F)F)cc(C(F)(F)F)c1
- growth at 0.01 µM [1]: 95%
- growth at 1 µM [2]: 93%
- growth at 0.1 µM [3]: 95%
- growth at 0.1 µM [4]: 103%
- IC50 [5]: 2.5 µM
- GI50 ([5]; read-out: GI50): 2.5 µM
- CC50 [5, 28]: > 100 µM
- TGI ([5]; read-out: TGI): > 100 µM
- GI50 ([5]; read-out: pGI50 (converted)): 2.51 µM
- CC50 [5, 29]: > 100 µM
- TGI ([5]; read-out: pTGI (converted)): > 100 µM
- growth at 1 µM [6]: 56%
- GI50 ([7]; read-out: GI50): 2.3 µM
- CC50 [7, 28]: > 100 µM
- TGI ([7]; read-out: TGI): > 100 µM
- GI50 ([7]; read-out: pGI50 (converted)): 2.82 µM
- CC50 [7, 29]: > 100 µM
- TGI ([7]; read-out: pTGI (converted)): > 100 µM
- GI50 ([8]; read-out: GI50): 3.12 µM
- CC50 [8, 28]: > 100 µM
- TGI ([8]; read-out: TGI): 21.1 µM
- GI50 ([8]; read-out: pGI50 (converted)): 3.09 µM
- CC50 [8, 29]: > 100 µM
- TGI ([8]; read-out: pTGI (converted)): 20.9 µM
- growth at 100 µM [9]: 34%
- growth at 0.01 µM [10]: 96%
- growth at 0.01 µM [11]: 102%
- IC50 [12]: 3.23 µM
- GI50 ([12]; read-out: GI50): 3.23 µM
- CC50 [12, 28]: > 100 µM
- TGI ([12]; read-out: TGI): 24.4 µM
- GI50 ([12]; read-out: pGI50 (converted)): 3.24 µM
- CC50 [12, 29]: > 100 µM
- TGI ([12]; read-out: pTGI (converted)): 30.9 µM
- GI50 ([13]; read-out: GI50): 4.75 µM
- CC50 [13, 28]: > 100 µM
- TGI ([13]; read-out: TGI): 90.8 µM
- GI50 ([13]; read-out: pGI50 (converted)): 4.79 µM
- CC50 [13, 29]: > 100 µM
- TGI ([13]; read-out: pTGI (converted)): 91.2 µM
- growth at 100 µM [14]: -4%
- growth at 0.1 µM [15]: 98%
- growth at 100 µM [16]: -18%
- growth at 0.1 µM [17]: 94%
- LC50 [18]: 24.5 µM
- GI50 ([18]; read-out: GI50): 1.59 µM
- TGI ([18]; read-out: TGI): 43.6 µM
- GI50 ([18]; read-out: pGI50 (converted)): 1.7 µM
- TGI ([18]; read-out: pTGI (converted)): 4.37 µM
- GI50 ([19]; read-out: GI50): 3.04 µM
- CC50 [19, 28]: > 100 µM
- TGI ([19]; read-out: TGI): > 100 µM
- GI50 ([19]; read-out: pGI50 (converted)): 3.02 µM
- CC50 [19, 29]: > 100 µM
- TGI ([19]; read-out: pTGI (converted)): > 100 µM
- growth at 0.1 µM [20]: 91%
- IC50 [21]: 2.62 µM
- GI50 ([21]; read-out: GI50): 2.52 µM
- CC50 [21, 28]: > 100 µM
- TGI ([21]; read-out: TGI): > 100 µM
- GI50 ([21]; read-out: pGI50 (converted)): 2.63 µM
- CC50 [21, 29]: > 100 µM
- TGI ([21]; read-out: pTGI (converted)): > 100 µM
- growth at 1 µM [22]: 100%
- growth at 0.01 µM [23]: 96%
- growth at 0.01 µM [24]: 102%
- growth at 100 µM [25]: 13%
- growth at 0.01 µM [26]: 93%
- growth at 0.01 µM [27]: 93%
